For test [1], the system named is rats with spinal nerve ligation (SpNL). Description: von Frey mechanical allodynia test, tolerance from chronic systemic morphine (s.c. morphine pellets). To be noted: for reversal of spinal morphine antiallodynic tolerance induced by chronic systemic morphine, single agent: CSD or S-CSD 10 μg, PP2 or PP3 300 ng, i.t. on day 8, 45 min before i.t. morphine; for prevention of antiallodynic tolerance to chronic systemic morphine, male rats / prevention of antiallodynic tolerance to chronic systemic morphine, female rats: i.t. 45 min before s.c. morphine pellet implantation on days 1, 3, 5; for prevention of antiallodynic tolerance to chronic systemic morphine, male rats: 10 μg; for prevention of antiallodynic tolerance to chronic systemic morphine, female rats: dose 6 μg or 10 μg.

The test system of test [2] is rats. Briefly: tail flick latency test, tolerance from chronic systemic morphine (s.c. morphine pellets). Particulars: i.t. CSD with s.c. morphine pellets; FIG. 4B.
Test [3] relates to rats with spinal nerve ligation (SpNL). Briefly: von Frey mechanical allodynia test, spinal morphine tolerance from chronic i.t. morphine. To be noted: for reversal of spinal morphine antiallodynic tolerance by the single agent: CSD 10 μg or PP2 300 ng i.t. 45 min before i.t. morphine on day 8 or 9 of daily i.t. 15 μg morphine; for reversal of spinal morphine antiallodynic tolerance by the single agent / duration of reversal of morphine tolerance by the single agent: FIGS. 3A, 3B; for duration of reversal of morphine tolerance by the single agent: CSD 10 μg or PP2 300 ng i.t.

Test [4] relates to rats. Briefly: tail flick latency test, spinal morphine tolerance from chronic i.t. morphine. To be noted: 9 days of daily 15 μg i.t. morphine.

“Also recorded” adds a separate entry of the source.

On to “H-Arg-Gln-Ile-Lys-Ile-Trp-Phe-Gln-Asn-Arg-Arg-Met-Lys-Trp-Lys-Lys-Trp-Gly-Ille-Asp-Lys-Ala-Ser-Phe-Thr-Thr-Phe-Thr-Val-Thr-Lys-Tyr-Trp-Phe-Arg-Tyr-OH (H-RQIKIWFQNRRMKWKKWGIDKASFTTFTVTKYWFRY-OH) [S-CSD]”, for which, in test [1] (FIGS. 6A, 6B), the “reversal of spinal morphine antiallodynic tolerance induced by chronic systemic morphine, single agent” value is recorded as “failed to alter antiallodynic action of i.t. morphine; also recorded: had no effect”. Besides, the “prevention of antiallodynic tolerance to chronic systemic morphine, male rats” value in test [1] (FIG. 4C) is reported as “failed to alter morphine tolerance development”. Besides, the “prevention of antiallodynic tolerance to chronic systemic morphine, female rats” value in test [1] (FIG. 4A) is reported as “remained minimal; also recorded: failed to alter morphine tolerance development”.
For the compound “H-Arg-Gln-Ile-Lys-Ile-Trp-Phe-Gln-Asn-Arg-Arg-Met-Lys-Trp-Lys-Lys-Asp-Gly-Ile-Trp-Lys-Ala-Ser-Phe-Thr-Thr-Phe-Thr-Val-Thr-Lys-Tyr-Trp-Phe-Tyr-Arg-OH (H-RQIKIWFQNRRMKWKKDGIWKASFTTFTVTKYWFYR-OH) [CSD]”, the “persistence of antinociceptive tolerance blockade after the last i.t. treatment (day 5), tail flick” value in the test with rats [2] came to 2 days. Also, the “reversal of spinal morphine antiallodynic tolerance by the single agent” value in test [3] is on record as “fully restored i.t morphine antiallodynia; also recorded: tolerance reversal was complete”. Besides, the “duration of reversal of morphine tolerance by the single agent” value in test [3] (chronic i.t. morphine) was “lasted for multiple days”. In addition, the “reversal of spinal morphine antiallodynic tolerance induced by chronic systemic morphine, single agent” value in test [1] (FIGS. 6A, 6B) is reported as “essentially fully restored i.t. morphine antiallodynic action”. The “reversal of tolerance and effect of reapplication of i.t. CSD, male rat” value in test [1] (i.t. 6 μg CSD on day 9, reapplication on day 12, morphine pellets, FIG. 7 right panel) is on record as “lasted through day 10; also recorded: again restored morphine antiallodynia”. Besides, the “prevention of antiallodynic tolerance to chronic systemic morphine, male rats” value in test [1] (FIG. 4C) is reported as “works identical in males as in females; also recorded: fully manifest”. In test [1] (FIG. 4A), the “prevention of antiallodynic tolerance to chronic systemic morphine, female rats” value is on record as “increase to cutoff in von Frey thresholds; also recorded: fully manifest”. Besides, in test [1] (i.t. CSD 0.33 μg, virtually no pretreatment with i.t. morphine), the “unmasking of antiallodynia of on boarded morphine pellet in systemic morphine tolerant animals” value is “unmasked robust morphine (from on boarded morphine pellet) antiallodynia”. Besides, the “prevention of tolerance and effect of reapplication of i.t. CSD, female rats” value in test [1] (i.t. CSD 6 μg before morphine pelleting, last on day 5, re-applied on day 11, FIG. 7 left panel) was “prevented morphine tolerance development; also recorded: morphine antiallodynia was fully manifest”. Further, in test [1] (i.t. CSD 3, 1, or 0.33 μg, chronic systemic morphine, data not shown), the “reversal of tolerance at lower dose of CSD” value is given as “Full reversal of tolerance development”. Further, the “persistence of tolerance blockade after the last i.t. treatment (day 5), female rats” value in test [1] (i.t. CSD on days 1, 3, 5 with s.c. morphine pellets, FIG. 4A) is given as 3 days. Moreover, the “persistence of tolerance blockade after the last i.t. treatment (day 5), male rats” value in test [1] (i.t. CSD on days 1, 3, 5 with s.c. morphine pellets, FIG. 4C) is reported as 3 days.
Take `Nc1ncnc2c1cnn2-c1ccccc1` [PP3, 1-Phenyl-1H-pyrazolo[3,4-d]pyrimidin-4-amine]: the “reversal of spinal morphine antiallodynic tolerance induced by chronic systemic morphine, single agent” value in test [1] (FIGS. 6A, 6B) is “failed to alter antiallodynic action of i.t. morphine; also recorded: devoid of any effect”.
For the compound `CC(C)(C)n1nc(-c2ccc(Cl)cc2)c2c(N)ncnc21` [PP2, 3-(4-chlorophenyl) 1-(1,1-dimethylethyl)-1H-pyrazolo[3,4-d]pyrimidin-4-amine], the “reversal of spinal morphine antiallodynic tolerance by the single agent” value in test [3] is given as “attenuated spinal opioid antiallodynic tolerance”. In addition, in test [3] (chronic i.t. morphine), the “duration of reversal of morphine tolerance by the single agent” value is “lasted for multiple days”. Moreover, in test [3] (PP2 300 ng i.t. 45 min before i.t. morphine, chronic i.t. morphine, FIG. 3B), the “share of opioid naive i.t. morphine responsiveness restored” value was “approximately 60%”. The “duration of tolerance-reversing effect” value in test [1] (CSD 10 μg or PP2 300 ng i.t. on day 8, chronic systemic morphine, FIGS. 6A, 6B) is “less than 24 hours”. For the same compound, the “reversal of spinal morphine antiallodynic tolerance induced by chronic systemic morphine, single agent” value in test [1] (FIGS. 6A, 6B) is listed as “essentially fully restored i.t. morphine antiallodynic action; also recorded: fully restored i.t. morphine antiallodynic effects”.
As to `CN1CC[C@]23c4c5ccc(O)c4O[C@H]2[C@@H](O)C=C[C@H]3[C@H]1C5` [morphine, (5a,6a)-7,8-didehydro-4,5-epoxy-17-methylmorphinan-3,6-diol], the “i.t. morphine antiallodynia ED50, morphine naive rats” value in test [3] (FIG. 1B) turned out to be 3.9 µg. Further, the “i.t. morphine antiallodynia ED50, morphine tolerant rats” value in test [3] (after chronic daily i.t. morphine, FIG. 1B) was determined as 13.1 µg. Further, the “times more morphine required in tolerant than in naive rats for comparable antiallodynia” value in test [3] (chronic daily i.t. morphine, FIG. 1B) was found to be 3.4 times. Besides, the “antiallodynic responsiveness to i.t. morphine after chronic daily i.t. morphine (tolerance)” value in test [3] (i.t. morphine 15 μg daily, 6 to 9 days, no CSD/PP2) is listed as “complete loss of antiallodynic responsiveness; also recorded: lost most of its antiallodynic effectiveness”. The “i.t. morphine antiallodynia ED50, opioid naive rats” value in test [1] (before pelleting, FIG. 5) came to 5.5 µg. Also, the “fold increase of i.t. morphine ED50 in tolerant vs. opioid naive rats” value in test [1] (chronic systemic morphine, FIG. 5) is recorded as 3.6 fold. Besides, in test [1] (day 7 of morphine pelleting, before PP2, FIG. 6B), the “reduction of i.t. morphine antiallodynic effects by chronic systemic morphine” value is “approximately 80%”. For the same compound, the “i.t. morphine antiallodynia ED50, chronic systemic morphine-treated (tolerant) rats” value in test [1] (s.c. morphine pellets, FIG. 5) was 19.7 µg. For the same compound, in the test with rats [4], the “analgesic effect of i.t. morphine after chronic daily i.t. morphine (tolerance), tail flick” value is reported as “lost most of its analgesic effect”.

For the origin of these results see US20230065816A1, “METHODS FOR PREVENTING AND REVERSING OPIOID ANALGESIC TOLERANCE IN SUBJECTS WITH CHRONIC PAIN” (The Reasearch Foundation for Suny, priority 2020, published 2023).
